In patent publication US20260216103A1, “USE OF LONG-ACTING ß2AR AGONIST IN PREPARATION OF DRUGS FOR TREATING CANCERS” (HONG KONG SXMETEROL PHARMACEUTICAL CO., LIMITED, priority 2023, published 2026):

Experiments:
[1] = tested on: CT-26 colorectal cancer cells; assay: subcutaneous tumorigenesis experiment with SX-pretreated colorectal cancer cells; type: in vivo, mice; settings: cells treated with 10 μM SX for 7 d
Procedure: (§1) Experimental method and steps: Cancer cells were treated with salmeterol xinafoate (SX) in vitro for 3-7 d, and a subcutaneous or orthotopic tumorigenesis experiment was conducted on mice.
CT-26 colorectal cancer cells were treated with 10 μM salmeterol xinafoate (SX) for 7 d, and cells (1×10^5/mouse) were subcutaneously injected on both sides of the back of mice in a control group and an SX treated group (5 mice/group) to conduct a tumorigenesis experiment. 10 cancers formed subcutaneously at 10 injection sites of 5 mice in the control group, and 8 cancers formed subcutaneously at 10 injection sites of 5 mice in the SX treated group.
Experimental results in FIG. 5 show cancer growth curves and representative cancer photos.

[2] = tested on: RT4 bladder cancer cells; assay: subcutaneous tumorigenesis experiment with SX-pretreated bladder cancer cells; type: in vivo, mice; settings: cells treated with 10 μM SX for 3 d, 1×10^6/mouse; FIG. 9; P<0.0001 vs control
Procedure: as §1
RT4 bladder cancer cells were treated with 10 μM salmeterol xinafoate (SX) for 3 d, and cells (1×10^6/mouse) were subcutaneously injected on both sides of the back of mice in a control group and an SX treated group (5 mice/group) to conduct a tumorigenesis experiment.
Experimental results in FIG. 9 show cancer growth curves.

[3] = tested on: breast cancer cells MDA-MB-231, 4T1, 168FARN, 67NR, 4TO7; assay: tumor sphere formation assay of breast cancer cells; type: cell-based; settings: 1 μM, 3 μM, or 10 μM, 7 d; FIG. 11
Source text: (§2) As a gold standard for detecting the self-renewal capability of cancer stem cells in vitro, a tumor sphere formation assay may detect individual cancer stem cell that continuously self-renew in a conditioned medium and form tumor spheres consisting of multiple cells. This in vitro experiment is often used to test the responsiveness of clinical patients to anticancer drugs, and guide in vivo medication of the clinical patients.
Experimental results in FIG. 11 show the number of tumor spheres from at least 3 independent experiments and representative tumor sphere photos.

[4] = tested on: colorectal cancer cells CT-26, SW620, HCT-15, DLD-1; assay: tumor sphere formation assay of colorectal cancer cells; type: cell-based; settings: 1 μM, 3 μM, or 10 μM, 7 d; FIG. 12
Source text: as §2

[5] = tested on: head and neck cancer cells CAL-27; assay: tumor sphere formation assay of head and neck cancer cells; type: cell-based; settings: 1 μM, 3 μM, or 10 μM, 7 d; FIG. 14
Source text: as §2

[6] = tested on: bladder cancer cells RT4; assay: tumor sphere formation assay of bladder cancer cells; type: cell-based; settings: 1 μM, 3 μM, or 10 μM, 7 d; FIG. 16
Source text: as §2

[7] = tested on: melanoma cells B16F10, A375, A2058; assay: tumor sphere formation assay of melanoma cells; type: cell-based; settings: 1 μM, 3 μM, or 10 μM, 7 d; FIG. 17
Source text: as §2

[8] = tested on: liver cancer cells Hep G2; assay: tumor sphere formation assay of liver cancer cells; type: cell-based; settings: 1 μM, 3 μM, or 10 μM, 7 d; FIG. 20
Source text: as §2

[9] = tested on: brain cancer cells SF126; assay: tumor sphere formation assay of brain cancer cells; type: cell-based; settings: 1 μM, 3 μM, or 10 μM, 7 d; FIG. 25
Source text: as §2

[10] = tested on: cervical cancer cells Hela; assay: tumor sphere formation assay of cervical cancer cells; type: cell-based; settings: 1 μM, 3 μM, or 10 μM, 7 d; FIG. 27
Source text: as §2

[11] = tested on: a variety of cancers; assay: orthotopic or subcutaneous tumorigenesis experiments in mice, summary; settings: summary of in vivo tumorigenesis experiments; drug concentration of 10 μM
Procedure: as §1

SMILES: OCc1cc(C(O)CNCCCCCCOCCCCc2ccccc2)ccc1O (stereo not drawn) [salmeterol xinafoate]
- cancers formed subcutaneously at injection sites ([1]; 1×10^5/mouse, 10 injection sites of 5 mice, control group 10): 8
- cancer growth curves (initiation and progression) ([1]; FIG. 5, P<0.0001 vs control): inhibits the initiation and progression of subcutaneous colorectal cancer
- cancer growth curves (initiation and progression) [2]: inhibits the initiation and progression of subcutaneous bladder cancer
- number of tumor spheres (self-renewal capability of cancer stem cells) [3]: inhibited the self-renewal capability of the breast cancer stem cells in a concentration dependent manner
- number of tumor spheres (self-renewal capability of cancer stem cells) [4]: inhibited the self-renewal capability of the colorectal cancer stem cells in a concentration dependent manner
- number of tumor spheres (self-renewal capability of cancer stem cells) [5]: inhibited the self-renewal capability of the head and neck cancer stem cells
- number of tumor spheres (self-renewal capability of cancer stem cells) [6]: inhibited the self-renewal capability of the bladder cancer stem cells in a concentration dependent manner
- number of tumor spheres (self-renewal capability of cancer stem cells) [7]: inhibited the self-renewal capability of the melanoma stem cells in a concentration dependent manner
- number of tumor spheres (self-renewal capability of cancer stem cells) [8]: inhibited the self-renewal capability of the liver cancer stem cells in a concentration dependent manner
- number of tumor spheres (self-renewal capability of cancer stem cells) [9]: inhibited the self-renewal capability of the brain cancer stem cells in a concentration dependent manner
- number of tumor spheres (self-renewal capability of cancer stem cells) [10]: inhibited the self-renewal capability of the cervical cancer stem cells in a concentration dependent manner
- cancer initiation and cancer growth [11]: not only inhibiting cancer initiation but also significantly inhibiting cancer growth
